From article PMC7884382, “A Phase 1 study of RO6870810, a novel bromodomain and extra-terminal protein inhibitor, in patients with NUT carcinoma, other solid tumours, or diffuse large B-cell lymphoma” (British Journal of Cancer, 2020)
Like-named read-outs stand apart in the source and are kept apart here.

Experimental: Patients were considered evaluable for safety if they received ≥1 injection of the study drug. All adverse events (AEs) were graded per the National Cancer Institute’s Common Terminology Criteria for Adverse Events (CTCAE) version 4.03.
Grade ≤3 drug-related fever or skin or SC tissue disorders localised to the site of injection—including grade ≤3 rash, pruritus, skin induration or pain—were not considered DLTs.
Data for patients with NC and lymphoma were evaluated but not included in the MTD determination.

Cc1sc2c(c1C)C(c1ccc(Cl)cc1)=N[C@@H](CC(=O)NCCCN1CCN(C)CC1)c1nnc(C)n1-2 [RO6870810]
Death due to AE (DLBCL (n = 19)): 3 (15.8) n (%) | Death due to treatment-related AE (DLBCL (n = 19)): 0 n (%) | Death due to AE (NC (n = 8)): 3 (37.5) n (%) | Death due to treatment-related AE (NC (n = 8)): 0 n (%) | Death due to AE (Solid tumours (n = 47)): 2 (4.3) n (%) | Death due to treatment-related AE (Solid tumours (n = 47)): 0 n (%) | Treatment-related grade 5 AEs (all patients): No treatment-related grade 5 AEs occurred | Grade 3/4 treatment-related AE: anaemia (human, in vivo): 8% | Grade 3/4 treatment-related AE: fatigue (human, in vivo): 10% | Grade 3/4 treatment-related AE: hyperbilirubinemia (human, in vivo): 5% | Grade 3/4 treatment-related AE: thrombocytopenia (human, in vivo): 10% | Incidence of treatment-related thrombocytopenia (human, in vivo): 12% | Treatment-emergent AE: Abdominal pain (human, in vivo): 13 (17.6) n (%) | Treatment-emergent AE: Anemia (human, in vivo): 20 (27.0) n (%) | Treatment-emergent AE: Back pain (human, in vivo): 13 (17.6) n (%) | Treatment-emergent AE: Blood bilirubin increased (human, in vivo): 14 (18.9) n (%) | Treatment-emergent AE: Constipation (human, in vivo): 14 (18.9) n (%) | Treatment-emergent AE: Cough (human, in vivo): 10 (13.5) n (%) | Treatment-emergent AE: Decreased appetite (human, in vivo): 38 (51.4) n (%) | Treatment-emergent AE: Dehydration (human, in vivo): 13 (17.6) n (%) | Treatment-emergent AE: Diarrhea (human, in vivo): 26 (35.1) n (%) | Treatment-emergent AE: Dizziness (human, in vivo): 10 (13.5) n (%) | Treatment-emergent AE: Dry mouth (human, in vivo): 11 (14.9) n (%) | Treatment-emergent AE: Dysgeusia (human, in vivo): 20 (27.0) n (%) | Treatment-emergent AE: Dyspnea (human, in vivo): 12 (16.2) n (%) | Treatment-emergent AE: Fatigue (human, in vivo): 43 (58.1) n (%) | Treatment-emergent AE: Headache (human, in vivo): 12 (16.2) n (%) | Treatment-emergent AE: Hypomagnesaemia (human, in vivo): 10 (13.5) n (%) | Treatment-emergent AE: Injection site erythema (human, in vivo): 26 (35.1) n (%) | Treatment-emergent AE: Injection site induration (human, in vivo): 21 (28.4) n (%) | Treatment-emergent AE: Injection site pain (human, in vivo): 25 (33.8) n (%) | Treatment-emergent AE: Injection site pruritus (human, in vivo): 15 (20.3) n (%) | Treatment-emergent AE: Injection site reaction (human, in vivo): 10 (13.5) n (%) | Treatment-emergent AE: Injection site swelling (human, in vivo): 10 (13.5) n (%) | Treatment-emergent AE: Malaise (human, in vivo): 16 (21.6) n (%) | Treatment-emergent AE: Myalgia (human, in vivo): 12 (16.2) n (%) | Treatment-emergent AE: Nausea (human, in vivo): 32 (43.2) n (%) | Treatment-emergent AE: Thrombocytopenia (human, in vivo): 10 (13.5) n (%) | Treatment-emergent AE: Vomiting (human, in vivo): 28 (37.8) n (%) | Treatment-emergent AE: Weight decreased (human, in vivo): 9 (12.2) n (%) | Treatment-related AE of any grade: decreased appetite (human, in vivo): 35% | Treatment-related AE of any grade: fatigue (human, in vivo): 42% | Treatment-related AE of any grade: injection-site erythema (human, in vivo): 35% | Treatment-related AE of any grade: injection-site pain (human, in vivo): 32% | Treatment-related AE of any grade: nausea (human, in vivo): 31% | Treatment-related AE: Cardiomyopathy (human, in vivo): 1 (1.4) n (%) | Treatment-related AE: Cholestasis (human, in vivo): 1 (1.4) n (%) | Treatment-related AE: Dyspnoea (human, in vivo): 1 (1.4) n (%) | Treatment-related AE: Hepatic enzyme increased (human, in vivo): 1 (1.4) n (%) | Treatment-related AE: Neutropenia (human, in vivo): 1 (1.4) n (%) | Treatment-related AE: Peritoneal haemorrhage (human, in vivo): 1 (1.4) n (%) | Treatment-emergent AE: Abdominal pain (human, in vivo, 0.03 mg/kg): 1 (33.3) n (%) | Treatment-emergent AE: Anemia (human, in vivo, 0.03 mg/kg): 0 n (%) | Treatment-emergent AE: Back pain (human, in vivo, 0.03 mg/kg): 0 n (%) | Treatment-emergent AE: Blood bilirubin increased (human, in vivo, 0.03 mg/kg): 0 n (%) | Treatment-emergent AE: Constipation (human, in vivo, 0.03 mg/kg): 0 n (%) | Treatment-emergent AE: Cough (human, in vivo, 0.03 mg/kg): 0 n (%) | Treatment-emergent AE: Decreased appetite (human, in vivo, 0.03 mg/kg): 0 n (%) | Treatment-emergent AE: Dehydration (human, in vivo, 0.03 mg/kg): 0 n (%) | Treatment-emergent AE: Diarrhea (human, in vivo, 0.03 mg/kg): 1 (33.3) n (%) | Treatment-emergent AE: Dizziness (human, in vivo, 0.03 mg/kg): 0 n (%) | Treatment-emergent AE: Dry mouth (human, in vivo, 0.03 mg/kg): 0 n (%) | Treatment-emergent AE: Dysgeusia (human, in vivo, 0.03 mg/kg): 0 n (%) | Treatment-emergent AE: Dyspnea (human, in vivo, 0.03 mg/kg): 0 n (%) | Treatment-emergent AE: Fatigue (human, in vivo, 0.03 mg/kg): 0 n (%) | Treatment-emergent AE: Headache (human, in vivo, 0.03 mg/kg): 0 n (%) | Treatment-emergent AE: Hypomagnesaemia (human, in vivo, 0.03 mg/kg): 1 (33.3) n (%) | Treatment-emergent AE: Injection site erythema (human, in vivo, 0.03 mg/kg): 2 (66.7) n (%) | Treatment-emergent AE: Injection site induration (human, in vivo, 0.03 mg/kg): 1 (33.3) n (%) | Treatment-emergent AE: Injection site pain (human, in vivo, 0.03 mg/kg): 0 n (%) | Treatment-emergent AE: Injection site pruritus (human, in vivo, 0.03 mg/kg): 3 (100) n (%) | Treatment-emergent AE: Injection site reaction (human, in vivo, 0.03 mg/kg): 0 n (%) | Treatment-emergent AE: Injection site swelling (human, in vivo, 0.03 mg/kg): 1 (33.3) n (%) | Treatment-emergent AE: Malaise (human, in vivo, 0.03 mg/kg): 1 (33.3) n (%) | Treatment-emergent AE: Myalgia (human, in vivo, 0.03 mg/kg): 1 (33.3) n (%) | Treatment-emergent AE: Nausea (human, in vivo, 0.03 mg/kg): 1 (33.3) n (%) | Treatment-emergent AE: Thrombocytopenia (human, in vivo, 0.03 mg/kg): 0 n (%) | Treatment-emergent AE: Vomiting (human, in vivo, 0.03 mg/kg): 0 n (%) | Treatment-emergent AE: Abdominal pain (human, in vivo, 0.06 mg/kg): 1 (33.3) n (%) | Treatment-emergent AE: Anemia (human, in vivo, 0.06 mg/kg): 0 n (%) | Treatment-emergent AE: Back pain (human, in vivo, 0.06 mg/kg): 0 n (%) | Treatment-emergent AE: Blood bilirubin increased (human, in vivo, 0.06 mg/kg): 0 n (%) | Treatment-emergent AE: Constipation (human, in vivo, 0.06 mg/kg): 1 (33.3%) n (%) | Treatment-emergent AE: Cough (human, in vivo, 0.06 mg/kg): 0 n (%) | Treatment-emergent AE: Decreased appetite (human, in vivo, 0.06 mg/kg): 0 n (%) | Treatment-emergent AE: Dehydration (human, in vivo, 0.06 mg/kg): 0 n (%) | Treatment-emergent AE: Diarrhea (human, in vivo, 0.06 mg/kg): 0 n (%) | Treatment-emergent AE: Dizziness (human, in vivo, 0.06 mg/kg): 0 n (%) | Treatment-emergent AE: Dry mouth (human, in vivo, 0.06 mg/kg): 0 n (%) | Treatment-emergent AE: Dysgeusia (human, in vivo, 0.06 mg/kg): 0 n (%) | Treatment-emergent AE: Dyspnea (human, in vivo, 0.06 mg/kg): 0 n (%) | Treatment-emergent AE: Fatigue (human, in vivo, 0.06 mg/kg): 2 (66.7) n (%) | Treatment-emergent AE: Headache (human, in vivo, 0.06 mg/kg): 0 n (%) | Treatment-emergent AE: Hypomagnesaemia (human, in vivo, 0.06 mg/kg): 0 n (%) | Treatment-emergent AE: Injection site erythema (human, in vivo, 0.06 mg/kg): 1 (33.3) n (%)
